Format in all cases: cell-based, human
In experiment [1] the test system is RKO. In words: Monolayer assay (modified propidium iodide), RKO. Conditions: Colon, 4 days of treatment. An excerpt: (§1) Oncotest GmbH, Germany's proprietary tumor cell line panel comprises 40 cell lines. These cell lines were derived from 15 different tumor histotypes, each represented by 1 to 6 different cell lines. Cell lines were established from cancer of the bladder (3), colon (4), head and neck (1), lung (6), breast (3), pancreas (3), prostate (4), ovary (2), kidney (3), liver (1), stomach (1) and the uteri body (1), as well as from melanoma (3), sarcoma (2) and pleuramesothelioma (3). Out of these 40 cell lines, 24 cell lines were established at Oncotest, from patient-derived tumor xenografts. […]
(§2) Stock solutions of the test compounds (330 μg/mL in DMSO) were prepared and stored in small aliquots (200 μL) at −20° C. […] Each concentration was evaluated in triplicate. […]
(§3) Cells were plated in 96-well flat-bottom microtiter plates at a cell density of 4,000 to 10,000 cells/well. […] To measure the viable cell number, the remaining adherent cells were killed and permeabilized by repeated freezing and thawing and PI fluorescence was measured using the Cytofluor 4000 microplate reader (excitation λ=530 nm, emission λ=620 nm), which was a measure for the number of cells which survived treatment. […] IC-values were calculated based on the principle of linear two-point curve fit. […]

Experiment [2] has as its system CAL 27. Put plainly: Monolayer assay (modified propidium iodide), CAL 27. The settings on record: CAL 27, Head and Neck, 4 days of treatment.
From the text: as §1, §2, §3

Experiment [3] deals with LXF 526L. In words: Monolayer assay (modified propidium iodide), LXF 526L. Conditions: Lung, 4 days of treatment.
From the text: (§4) Oncotest GmbH, Germany's proprietary tumor cell line panel comprises 40 cell lines. These cell lines were derived from 15 different tumor histotypes, each represented by 1 to 6 different cell lines. Cell lines were established from cancer of the bladder (3), colon (4), head and neck (1), lung (6), breast (3), pancreas (3), prostate (4), ovary (2), kidney (3), liver (1), stomach (1) and the uteri body (1), as well as from melanoma (3), sarcoma (2) and pleuramesothelioma (3). Out of these 40 cell lines, 24 cell lines were established at Oncotest, from patient-derived tumor xenografts. The other 16 cell lines were either provided by the NCI (Bethesda; MD, USA) or were purchased from ATCC (Rockville, Md., USA) or DSMZ (Braunschweig, Germany).
(§5) Cell lines were routinely passaged once or twice weekly and maintained in culture for upto 20 passages. All cells were grown at 37° C. in a humidified atmosphere with 5% CO2 in RPMI 1640 medium supplemented with 10% (v/v) fetal calf serum (FCS) and 0.1 mg/mL gentamicin (medium and all other components from PAA, Cölbe, Germany). […]
as §2
as §3, with “treatment. Pharmacological effects on cell proliferation and survival were expressed as Test/Control×100 (% T/C) values, with T and C representing the fluorescence read-outs for wells with and without test compound, respectively, i.e. T/C represents the ratio of viable cell numbers following incubation of cell line with/without test compound.” for “treatment.”

In experiment [4] the test system is MAXF 401NL. Put plainly: Monolayer assay (modified propidium iodide), MAXF 401NL. The settings on record: Mammary, 4 days of treatment.
From the text: as §1, §2, §3

Experiment [5] relates to MCF 7. In words: Monolayer assay (modified propidium iodide), MCF 7. Conditions: MCF 7, Mammary, 4 days of treatment.
From the text: as §1, §2, §3

Experiment [6] has as its system MDA 231. In words: Monolayer assay (modified propidium iodide), MDA 231. Conditions: MDA 231, Mammary, 4 days of treatment.
From the text: as §4, §5, §2
as §3, with “treatment. Pharmacological effects on cell proliferation and survival were expressed as Test/Control×100 (% T/C) values, with T and C representing the fluorescence read-outs for wells with and without test compound, respectively, i.e. T/C represents the ratio of viable cell numbers following incubation of cell line with/without test compound.” for “treatment.”

In experiment [7] the test system is LNCAP. Put plainly: Monolayer assay (modified propidium iodide), LNCAP. Conditions: Prostate, 4 days of treatment.
From the text: as §1, §2, §3

≈ marks a conversion by molar mass, not a printed value. Where only a bound is given, the exact number is not on record here.

Regarding `C/C=C/C(O)C(C)/C=C/C(=N\O)C(C)C(O)C(C)C1OC(=O)/C(OC)=C/C(C)=C/C(C)C(O)C(CC)C(O)C(C)C/C(C)=C/C=C/C1OC` (centres unmarked) [Example 7, (3Z,5E,13E,15E)-18-((5Z,6E,10E)-3,9-Dihydroxy-5-(hydroxymino)-4,8-dimethyldodeca-6,10-dien-2-yl)-9-ethyl-8,10-dihydroxy-3,17-dimethoxy-5,7,11,13-tetramethyl oxacyclooctadeca-3,5,13,15-tetraen-2-one], the concentration for an effect of 70% (IC70) is 0.6 ng/mL (≈ 0.87 nM) in experiment [1]; 1.0 ng/mL (≈ 1.45 nM) in experiment [2]; 0.1 ng/mL (≈ 0.145 nM) in experiment [3]; 8.0 ng/mL (≈ 11.6 nM) in experiment [4]; 4.0 ng/mL (≈ 5.8 nM) in experiment [5]; less than 0.1 ng/mL in experiment [6]. This compound came in with an IC70 in experiment [7] of 15.0 ng/mL (≈ 21.7 nM). In addition, the IC50 in experiment [1] (Homo sapiens, 96 h) is 0.2 ng/mL (≈ 0.29 nM); in experiment [2] (Homo sapiens, 96 h), less than 0.1 ng/mL; in experiment [3] (Homo sapiens, 96 h), less than 0.1 ng/mL; in experiment [4] (Homo sapiens, 96 h), 3 ng/mL (≈ 4.35 nM); in experiment [5] (Homo sapiens, MCF7, 96 h) it was 1 ng/mL (≈ 1.45 nM); in experiment [6] (Homo sapiens, MDA-MB-231, 96 h), less than 0.1 ng/mL. For the same compound, the IC50 in experiment [7] (Homo sapiens, 96 h) is 3 ng/mL (≈ 4.35 nM).

As a reminder, the IC70 is the concentration at which the effect reaches the 70% level. A higher IC70 goes with weaker potency. The IC50 is the concentration at which inhibition is half-maximal. High values mean lower potency, low ones higher potency.

The record behind these values is patent publication US8637683B2, “Macrocyclic lactone derivatives for the treatment of cancer” (Piramal Enterprises Limited, priority 2009, dated 2014).
